US8268990B2, “Compounds” (AstraZeneca AB, priority 2007, dated 2012)

biological target: T1, Recombinant human TLR7 (Homo sapiens, UniProt Q9NYK1); test: Human TLR7 Assay (SEAP reporter); assay type: cell-based; settings: HEK293 cell line stably expressing human TLR7 and pNiFty2-SEAP reporter; SEAP induction after overnight incubation at 37° C., 0.1% (v/v) DMSO;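 further: SEAP driven by an NFkB-responsive composite promoter, pEC50 read at half of each compound's own maximal SEAP induction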
T1 construct: expressed in transfected cells; host or cells: HEK293 cell line stably expressing the pNiFty2-SEAP reporter plasmid; TLR7 in vector pUNO, blasticidin selection
T1 sequence (Q9NYK1 27-1049): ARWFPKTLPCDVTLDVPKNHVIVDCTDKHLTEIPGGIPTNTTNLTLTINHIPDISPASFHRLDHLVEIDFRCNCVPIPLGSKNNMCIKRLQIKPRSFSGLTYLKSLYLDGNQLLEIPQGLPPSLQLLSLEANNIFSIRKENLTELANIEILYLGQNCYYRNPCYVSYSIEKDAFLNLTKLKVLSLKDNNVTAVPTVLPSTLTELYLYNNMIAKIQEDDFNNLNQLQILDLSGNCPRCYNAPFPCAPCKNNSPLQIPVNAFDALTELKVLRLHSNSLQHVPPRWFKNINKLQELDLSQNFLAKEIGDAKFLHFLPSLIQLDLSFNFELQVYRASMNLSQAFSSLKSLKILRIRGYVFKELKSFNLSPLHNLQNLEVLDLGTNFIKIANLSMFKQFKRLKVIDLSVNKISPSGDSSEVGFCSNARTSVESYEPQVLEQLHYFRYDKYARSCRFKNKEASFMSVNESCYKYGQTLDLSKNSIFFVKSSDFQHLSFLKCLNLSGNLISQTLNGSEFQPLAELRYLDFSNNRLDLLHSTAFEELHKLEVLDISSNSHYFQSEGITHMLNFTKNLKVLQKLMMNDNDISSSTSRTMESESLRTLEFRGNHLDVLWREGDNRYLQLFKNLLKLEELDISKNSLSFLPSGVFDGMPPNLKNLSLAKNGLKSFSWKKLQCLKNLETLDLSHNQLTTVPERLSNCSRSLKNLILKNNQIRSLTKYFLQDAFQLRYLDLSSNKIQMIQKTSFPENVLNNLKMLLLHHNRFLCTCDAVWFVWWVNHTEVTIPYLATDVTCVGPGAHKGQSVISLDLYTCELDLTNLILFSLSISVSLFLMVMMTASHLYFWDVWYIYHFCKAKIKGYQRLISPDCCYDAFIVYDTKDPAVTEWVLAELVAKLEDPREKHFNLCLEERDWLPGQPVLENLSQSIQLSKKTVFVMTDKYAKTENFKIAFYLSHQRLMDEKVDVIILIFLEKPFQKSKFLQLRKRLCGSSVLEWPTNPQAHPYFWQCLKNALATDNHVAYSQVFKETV

| Compound | EC50 [nM] |
| --- | --- |
| CCCCCNc1nc(N)nc(C)c1Cc1ccc(CC(=O)OCCCCN2CCS(=O)(=O)CC2)cc1 [Example 64, 4-(1,1-Dioxidothiomorpholin-4-yl)butyl(4-{[2-amino-4-methyl-6-(pentylamino)pyrimidin-5-yl]methyl}phenyl)acetate] | 2510 |
| CCCCNc1nc(N)nc(C)c1Cc1ccc(CC(=O)OCC2CCN(C)CC2)cc1 [Example 69, (1-Methylpiperidin-4-yl)methyl 2-(4-((2-amino-4-(butylamino)-6-methylpyrimidin-5-yl)methyl)phenyl)acetate] | 126 |
| CCC[C@@H](CO)Nc1nc(N)nc(C)c1Cc1ccc(CC(=O)OCCCCN(C)C)cc1 [Example 70, (S)-4-(Dimethylamino)butyl 2-(4-((2-amino-4-(1-hydroxypentan-2-ylamino)-6-methylpyrimidin-5-yl)methyl)phenyl)acetate] | 1260 |
| CCC[C@@H](CO)Nc1nc(N)nc(C)c1Cc1ccc(CC(=O)OCC2CCN(C)CC2)cc1OC [Example 71, (S)-(1-Methylpiperidin-4-yl)methyl 2-(4-((2-amino-4-(1-hydroxypentan-2-ylamino)-6-methylpyrimidin-5-yl)methyl)-3-methoxyphenyl)acetate] | 20 |
| CCCCNc1nc(N)nc(C)c1Cc1ccc(CC(=O)OCC2CCN(C)CC2)cc1OC [Example 72, (1-Methylpiperidin-4-yl)methyl 2-(4-((2-amino-4-(butylamino)-6-methylpyrimidin-5-yl)methyl)-3-methoxyphenyl)acetate] | 15.8 |
| CCCCNc1nc(N)nc(C)c1Cc1ccc(CC(=O)OCCCCN2CCCC2)cc1OC [Example 73, 4-(Pyrrolidin-1-yl)butyl 2-(4-((2-amino-4-(butylamino)-6-methylpyrimidin-5-yl)methyl)-3-methoxyphenyl)acetate] | 5.01 |
| CCC[C@@H](CCO)Nc1nc(N)nc(C)c1Cc1ccc(CC(=O)OC)cc1O [Example 75, (S)-Methyl 2-(4-((2-amino-4-(1-hydroxyhexan-3-ylamino)-6-methylpyrimidin-5-yl)methyl)-3-hydroxyphenyl)acetate] | 6.31 |

The remaining lines, values ahead:

| EC50 [nM] | Compound |
| --- | --- |
| 158 | CCCCCNc1nc(N)nc(C)c1Cc1ccc(CC(=O)OCCC2CCN(C)CC2)cc1 [Example 66, 2-(1-Methylpiperidin-4-yl)ethyl 2-(4-((2-amino-4-methyl-6-(pentylamino)pyrimidin-5-yl)methyl)phenyl)acetate] |
| 794 | CCCCCNc1nc(N)nc(C)c1Cc1ccc(CC(=O)OCC2CCNCC2)cc1 [Example 67, Piperidin-4-ylmethyl 2-(4-((2-amino-4-methyl-6-(pentylamino)pyrimidin-5-yl)methyl)phenyl)acetate] |
| 631 | CCCCCNc1nc(N)nc(C)c1Cc1ccc(CC(=O)OCCCCN2CCC(N(C)C)CC2)cc1 [Example 68, 4-(4-(Dimethylamino)piperidin-1-yl)butyl 2-(4-((2-amino-4-methyl-6-(pentylamino)pyrimidin-5-yl)methyl)phenyl)acetate] |
| 39.8 | CCC[C@@H](CCO)Nc1nc(N)nc(C)c1Cc1ccc(CC(=O)OCC2CCN(C)CC2)cc1F [Example 74, (S)-(1-Methylpiperidin-4-yl)methyl 2-(4-((2-amino-4-(1-hydroxyhexan-3-ylamino)-6-methylpyrimidin-5-yl)methyl)-3-fluorophenyl)acetate] |
| 631 | CCC[C@@H](CO)Nc1nc(N)nc(C)c1Cc1ccc(CC(=O)OCC2CCN(C)CC2)cc1O [Example 76, (S)-(1-Methylpiperidin-4-yl)methyl 2-(4-((2-amino-4-(1-hydroxypentan-2-ylamino)-6-methylpyrimidin-5-yl)methyl)-3-hydroxyphenyl)acetate] |
| 63.1 | CCCCNc1nc(N)nc(C)c1Cc1ccc(CC(=O)OC)cc1O [Example 77, Methyl 2-(4-((2-amino-4-(butylamino)-6-methylpyrimidin-5-yl)methyl)-3-hydroxyphenyl)acetate] |
